Source: patent US20150183748A1, “METHODS OF TREATMENT AND PREVENTION OF NEURODEGENERATIVE DISEASES AND DISORDERS” (Thomas Jefferson University, priority 2007, published 2015)
Entries after “also recorded” stand apart in the source; their conditions may differ.

Test system: DM/HC pig model
Experiment: Diabetic/hypercholesterolemic (DM/HC) pig model: brain histology/IHC, weight and behaviour
Assay type: in vivo
Method: A diabetic/diabetic hypercholestrolemic pig model (DM/HC) was developed that mimics human-like atherosclerosis. Farm pigs weighing 25-30 kg and aged ˜4 months were made diabetic with a single intravenous injection of 125 mg/kg of streptozotocin (Sicor Pharmaceuticals, Irvine, Calif.). After stabilization for 1-2 weeks, the animals with elevated levels of plasma glucose (>150 mg/dl) were fed with atherogenic (high-fat) diet as shown in Table 1 (Animal Specialties, Quakertown, Pa.) to achieve a cholesterol level of approximately […] Maintenance of the cholesterol level was determined by method as shown in Table 2.
On days 1-2, animals were fed normal chow, followed by on days 3-14 animals were fed a diet of 0.5% cholesterol, 2% lard and on day 14, cholesterol levels were measured and the diet adjusted accordingly to increase to 2% cholesterol, 10% lard if cholesterol is <300 mg/dl. Following induction of DM/HC, cholesterol was measured until cholesterol levels are stable between 300 and 800 mg/dl, and following cholesterol stabilization, cholesterol was measured monthly. If cholesterol levels were unstable following initial stabilization phase, the diet of the animal was returned to the initial two-week measurement schedule. Monthly cholesterol levels were determined, including levels of total cholesterol, LDL, HDL, VLDL and triglycerides.
At one month after stabilization of cholesterol at 250-800 mg/d1, the animals were randomized into two experimental groups, DM/HC (hyperglycemia and hypercholesterolemia) group with no treatment and treatment group (10 mg/kg/day of SB-480848, also referred to as 1-(N-(2-(diethylamino)ethyl)-N-(4-(4-trifluoromethylphenyl)benzyl)-aminocarbonylmethyl)-2-(4-fluorobenzyl)thio-5,6-trimethylenepyrimidin-4-one). The animals were sacrificed at 6-month after the randomization. The animal protocol has been approved by the Institutional Animal Care and Use Committee of University of Pennsylvania.
Two diabetic/hypercholesterolemic groups were evaluated: 1. DM/HC group and 2. DM/HC animals receiving Lp-PLA2 inhibitors. The experiments included: the control group (DM/HC group—17 pigs) and the experimental group (DM/HC animals receiving LP-PLA2 inhibitors—20 pigs). In addition blood cholesterol levels were maintained between 300 and 800 mg/dl in experimental animals, this range having been determined to provide a better test model. Blood cholesterol levels were monitored in all animals on a bimonthly basis, as shown in Table 4 and adjustments were made to the fat content of the feed accordingly, as shown in Table 2. The cholesterol and lard percent were in the range of 0.5-2% and 10-25%, respectively, and all animals received feed that contained cholesterol and lard concentration within that range. Blood samples were obtained at baseline, 1 month, 3 months, and 6 months. Less than 1 ml/kg of blood were obtained each time. At the bimonthly blood cholesterol levels tests, levels of total cholesterol, LDL, HDL, VLDL and triglycerides, blood glucose, Lp-PLA2 and […] (PBMCs) were tested (see Table 4).
The animal number, selected to justify the minimum requirement for statistical validity were 2 groups of animals per experiment as follows: 1. Control group (n=17); Diabetic and hyperlipidemic; 2.
Domestic farm pigs, Yorkshire boars, ranging in weight between 25-35 kg were purchased from a local farm and placed in indoor housing under the care of a veterinarian. They were castrated 3-5 days in advance of the study start date. Test pigs were made diabetic by infusing one dose of streptozocin (125 mg/kg) IV in a period of 30 min. […] To avoid the possible onset of initial hypoglycemia, 20 g of glucose powder was added to the feed for the […]. The blood glucose was measured using a glucometer every day before feeding for the first 14 days and then once a week.
Test animals were housed separately from control animals to avoid inter-animal transfer of drug due to colcophagia. […]

[1] = DM/HC pigs, 10 mg/kg/day, brain IHC for pig immunoglobulin
[2] = DM/HC pigs, 10 mg/kg/day, observed during study period vs control non-treated animals

SMILES: CCN(CC)CCN(Cc1ccc(-c2ccc(C(F)(F)F)cc2)cc1)C(=O)Cn1c(SCc2ccc(F)cc2)nc(=O)c2c1CCC2 [Lp-PLA2 inhibitor, 1-(N-(2-(diethylamino)ethyl)-N-(4-(4-trifluoromethylphenyl)benzyl)-aminocarbonylmethyl)-2-(4-fluorobenzyl)thio-5,6-trimethylenepyrimidin-4-one]
- activation of glial cells (DM/HC pigs treated with Lp-PLA2 inhibitor, GFAP as marker): less activation of glial cells
- Abeta42 accumulation in vascular SMCs (cerebrovascular amyloidosis) (DM/HC pigs, 10 mg/kg/day, Abeta-42 immunostaining of arterioles): little or no arterial Abeta-42 immunostaining; also recorded: prevented Abeta42 accumulation in vascular SMCs
- Abeta-42 accumulation in neurons (immunoreactivity) (DM/HC pigs, 10 mg/kg/day, brain Abeta-42 immunostaining, n=6): immunonegative neurons for Abeta-42; also recorded: no neuronal Abeta-42 immunoreactivity
- dendrite collapse (DM/HC pigs, 10 mg/kg/day, brain IHC): no dendrite collapse
- Ig binding to neurons [1]: no Ig binding to neurons
- Ig leakage from blood vessels [1]: Ig is confined to the lumen of the blood vessels; also recorded: no Ig leakage from blood vessels
- DM/HC-induced BBB leakage (DM/HC pigs, 10 mg/kg/day, brain IHC for pig immunoglobulin, n=6): prevents BBB leakage; also recorded: negligible BBB leakage
- sick neurons (DM/HC pigs, 10 mg/kg/day, compared with non-treated animals): rarely observed
- activity in the cage [2]: increased activity in the cage
- response to feeding and handling [2]: respond more alertly to feeding and handling
- responsiveness to external stimuli [2]: more responsive to external stimuli
